Laboratory results as given in patent publication US20250289787A1, “HERBICIDAL 2-OXO-NICOTINIC ACID DERIVATIVES” (SYNGENTA CROP PROTECTION AG, priority 2022, published 2025).

Key:
Assay type in all cases: in vivo
Set-up in all cases: key: 5=81-100%; 4=61-80%; 3=41-60%; 2=21-40%; 1=1-20%; 0=no damage to the plant; -=not tested
[1] = system: Amaranthus palmeri (AMAPA); experiment: Pre-emergence test, herbicidal damage; conditions: 1000 g/ha unless otherwise stated, evaluated after 13 days, five-point scale
[2] = system: Ipomoea hederacea (IPOHE); experiment: Post-emergence test, herbicidal damage; conditions: sprayed after 8 days cultivation, 1000 g/ha unless otherwise stated, evaluated after 13 days, five-point scale
Experimental: (§1) Seeds of a variety of test species are sown in standard soil in pots Amaranthus palmeri (AMAPA), (Amaranthus retoflexus (AMARE), Echinochloa crus-galli (ECHCG), Zea mays (ZEAMX), Ipomoea 5 hederacea (IPOHE), and Setaria faberi (SETFA). After 8 days cultivation under controlled conditions in a glasshouse (at 24° C./16° C., day/night; 14 hours light; 65% humidity), the plants are sprayed with an aqueous spray solution derived from the formulation of the technical active ingredient in acetone/water (50:50) solution containing 0.5% Tween 20 (polyoxyethelyene sorbitan monolaurate, CAS RN 9005-64-5). Compounds are applied at 1000 g/ha unless otherwise stated. The test plants are then grown in a glasshouse under controlled conditions in a glasshouse (at 24° C./16° C., day/night; 14 hours light; 65% humidity) and watered twice daily. After 13 days the test is evaluated for the percentage damage caused to the plant. The biological activities are shown in the following table on a five-point scale (5=81-100%; 4=61-80%; 3=41-60%; 2=21-40%; 1=1-20%; 0=no damage to the plant; -=not tested).

Zea mays (ZEAMX) [3] = experiment: Post-emergence test, herbicidal damage; conditions: sprayed after 8 days cultivation, 1000 g/ha unless otherwise stated, evaluated after 13 days, five-point scale
Experimental: as §1

Setaria faberi (SETFA) [4] = experiment: Post-emergence test, herbicidal damage; conditions: sprayed after 8 days cultivation, 1000 g/ha unless otherwise stated, evaluated after 13 days, five-point scale
Experimental: as §1

[5] = system: Echinochloa crus-galli (ECHCG); experiment: Post-emergence test, herbicidal damage; conditions: sprayed after 8 days cultivation, 1000 g/ha unless otherwise stated, evaluated after 13 days, five-point scale
Experimental: as §1

[6] = system: Amaranthus retoflexus (AMARE); experiment: Post-emergence test, herbicidal damage; conditions: sprayed after 8 days cultivation, 1000 g/ha unless otherwise stated, evaluated after 13 days, five-point scale
Experimental: as §1

[7] = system: Amaranthus palmeri (AMAPA); experiment: Post-emergence test, herbicidal damage; conditions: sprayed after 8 days cultivation, 1000 g/ha unless otherwise stated, evaluated after 13 days, five-point scale
Experimental: as §1

[8] = system: Echinochloa crus-galli (ECHCG); experiment: Pre-emergence test, herbicidal damage; conditions: 1000 g/ha unless otherwise stated, evaluated after 13 days, five-point scale
Zea mays (ZEAMX) [9] = experiment: Pre-emergence test, herbicidal damage; conditions: 1000 g/ha unless otherwise stated, evaluated after 13 days, five-point scale
Setaria faberi (SETFA) [10] = experiment: Pre-emergence test, herbicidal damage; conditions: 1000 g/ha unless otherwise stated, evaluated after 13 days, five-point scale
[11] = system: Ipomoea hederacea (IPOHE); experiment: Pre-emergence test, herbicidal damage; conditions: 1000 g/ha unless otherwise stated, evaluated after 13 days, five-point scale
[12] = system: Amaranthus retoflexus (AMARE); experiment: Pre-emergence test, herbicidal damage; conditions: 1000 g/ha unless otherwise stated, evaluated after 13 days, five-point scale

Structure (SMILES)	percentage damage caused to the plant, AMAPA [1]	percentage damage caused to the plant, IPOHE [2]	percentage damage caused to the plant, ZEAMX (Zea mays (ZEAMX) [3])	percentage damage caused to the plant, SEFTA (Setaria faberi (SETFA) [4])	percentage damage caused to the plant, ECHCG [5]	percentage damage caused to the plant, AMARE [6]	percentage damage caused to the plant, AMAPA [7]	percentage damage caused to the plant, ECHCG [8]	percentage damage caused to the plant, ZEAMX (Zea mays (ZEAMX) [9])	percentage damage caused to the plant, SEFTA (Setaria faberi (SETFA) [10])	percentage damage caused to the plant, IPOHE [11]	percentage damage caused to the plant, AMARE [12]
Cc1[nH]c(=O)c(C(=O)O)c(-c2ccc(Cl)c(Cl)c2)c1Br [Compound 1, 5-bromo-4-(3,4-dichlorophenyl)-6-methyl-2-oxo-1H-pyridine-3-carboxylic acid]	3 (3=41-60%)	1 (1=1-20%)	1 (1=1-20%)	1 (1=1-20%)	0	5 (5=81-100%)	5 (5=81-100%)	1 (1=1-20%)	0	0	0	2 (2=21-40%)
Cc1[nH]c(=O)c(C(=O)O)c(-c2ccc(Cl)c(Cl)c2)c1Cl [Compound 2, 5-chloro-4-(3,4-dichlorophenyl)-6-methyl-2-oxo-1H-pyridine-3-carboxylic acid]	0	0	0	0	0	0	0	0	0	0	0	0
Cc1c(Cl)c(-c2ccc(Cl)c(Cl)c2)c(C(=O)O)c(=O)n1-c1ccc(Cl)cc1 [Compound 3, 5-chloro-1-(4-chlorophenyl)-4-(3,4-dichlorophenyl)-6-methyl-2-oxo-pyridine-3-carboxylic acid]	4 (4=61-80%)	2 (2=21-40%)	1 (1=1-20%)	1 (1=1-20%)	0	4 (4=61-80%)	4 (4=61-80%)	1 (1=1-20%)	0	2 (2=21-40%)	0	2 (2=21-40%)
Cc1c(Cl)c(-c2ccc(Cl)c(Cl)c2)c(C(=O)O)c(=O)n1C [Compound 4, 5-chloro-4-(3,4-dichlorophenyl)-1,6-dimethyl-2-oxo-pyridine-3-carboxylic acid]	1 (1=1-20%)	0	0	0	0	1 (1=1-20%)	2 (2=21-40%)	0	0	0	0	1 (1=1-20%)
Cc1c(Br)c(-c2ccc(Cl)c(Cl)c2)c(C(=O)O)c(=O)n1C [Compound 5, 5-bromo-4-(3,4-dichlorophenyl)-1,6-dimethyl-2-oxo-pyridine-3-carboxylic acid]	0	1 (1=1-20%)	1 (1=1-20%)	0	0	1 (1=1-20%)	1 (1=1-20%)	0	0	0	0	0
Cc1cc(-c2ccc(Cl)c(Cl)c2)c(C(=O)O)c(=O)n1-c1ccc(F)cc1F [Compound 14, 4-(3,4-dichlorophenyl)-1-(2,4-difluorophenyl)-6-methyl-2-oxo-pyridine-3-carboxylic acid]	–	0	1 (1=1-20%)	1 (1=1-20%)	1 (1=1-20%)	1 (1=1-20%)	1 (1=1-20%)	0	0	0	0	0
Cc1c(Br)c(-c2ccc(Cl)c(Cl)c2)c(C(=O)O)c(=O)n1-c1ccc(Cl)cc1F [Compound 21, 5-bromo-1-(4-chloro-2-fluoro-phenyl)-4-(3,4-dichlorophenyl)-6-methyl-2-oxo-pyridine-3-carboxylic acid]	4 (4=61-80%)	1 (1=1-20%)	1 (1=1-20%)	1 (1=1-20%)	0	–	4 (4=61-80%)	1 (1=1-20%)	0	1 (1=1-20%)	–	4 (4=61-80%)
Cc1cc(-c2ccc(Cl)c(Cl)c2)c(C(=O)O)c(=O)n1Cc1ccc(C(F)(F)F)cc1F [Compound 27, 4-(3,4-dichlorophenyl)-1-[[2-fluoro-4-(trifluoromethyl)phenyl]methyl]-6-methyl-2-oxo-pyridine-3-carboxylic acid]	1 (1=1-20%)	–	0	0	0	0	1 (1=1-20%)	–	0	0	0	0
Cc1c(Br)c(-c2ccc(Cl)c(Cl)c2)c(C(=O)O)c(=O)n1-c1ccc(F)cc1F [Compound 29, 5-bromo-4-(3,4-dichlorophenyl)-1-(2,4-difluorophenyl)-6-methyl-2-oxo-pyridine-3-carboxylic acid]	–	1 (1=1-20%)	0	1 (1=1-20%)	1 (1=1-20%)	1 (1=1-20%)	–	1 (1=1-20%)	0	1 (1=1-20%)	1 (1=1-20%)	1 (1=1-20%)
